The source of these data is patent publication US20130102593A1, “PYRROLIDINE COMPOUNDS WHICH INHIBIT BETA-SECRETASE ACTIVITY AND METHODS OF USE THEREOF” (priority 2008, published 2013).

Where two headings read alike, the source gives them in different places.

Data set [1] in a line: Determination of hepatic intrinsic clearance in liver microsomes. It is filed as in vitro ADME. The note with it: human liver microsomes, value in text. The protocol:
To 500 μl of 200 mM Na^+K^+ phoshapte buffer (pH 7.4), 100 μl of 1 mM EDTA solution was added followed by 100 μl of 2 mg protein/ml human liver microsomes. A 10 μl aliquot of test compound (20 mM stock in 50% acetonitrile) was diluted further with 40 μl of H2O (total assay volume 750 μl. Assay mixture is incubated for 5 minutes at 37° C. The assay was initiated by addition of 250 μl of 4 mM NADPH solution. Incubation was continued at 37° C. Separate reaction mixtures were prepared for 0, 5, 10, 20, and 30 min durations. Individual reactions were halted by addition of 150 μl of 100% acetonitrile. Internal standard (10 μl of 100 ng/ml diazepam solution) was added. Concentration of the test compound in each separate reaction was measured using LC/MS/MS and a standard curve for the test compound according to standard procedures.
The hepatic intrinsic clearance in liver microsome was determined by the following procedure described by Davies and Morris (Davies, B. and Morris, T. (19930) Physiological parameters in laboratory animals and humans. Pharm Res. 10:1093-1095) detailing the relationship of in vitro clearance to physiological parameters in animals and human subjects. […]
where T is time (in minutes), from the relationship of relative amount vs. time. Alternatively, k1 was determined from a transform of the equation, where […]
(Microsomes from liver hold many membrane-bound enzymes, among them those of drug oxidation.)

In data set [2] the test system is Aβ production. Description: Cellular Aβ IC50 determination (memapsin 2 activity in a cellular assay of Aβ production). It is filed as cell-based, Chinese hamster. The following applies: Cricetulus griseus, read-out: M2 IC50. The protocol: The potency of compounds against memapsin 2 activity was determined in a cellular assay of Aβ production. […] Chinese hamster ovary cells that over-express human APP695 with the London and Swedish mutations were seeded in multi-well plates at 10% confluency. Compounds are dissolved in DMSO to concentrations near 1 mM, and diluted into culture media to a final concentration near 4 μM (final 0.4% DMSO). Compounds were diluted serially and applied to cells in multi-well plates 48 h after seeding. Incubation was continued in 5% CO2 at 37° C. for 24 h. Aliquots were removed and assayed for […] content using a sandwich ELISA (BioSource International). Amount of Aβ40 over the range of concentration of compounds, relative to control incubations, were fit to a 4-parameter IC50 model.

Setting [3] is: Chinese hamster ovary cells over-expressing human APP695 with London and Swedish mutations, 24 h, Aβ40 sandwich ELISA.

For orientation: IC50 means the concentration that gives 50% inhibition. On to `Cc1coc([C@H]2CCCN2C(=O)c2cccc(C(=O)N[C@@H](Cc3ccccc3)[C@H](O)[C@H]3C[C@@H](OCc4ccccc4)CN3)c2)n1` [1-18, N-((1R,2S)-1-((2R,4R)-4-(benzyloxy)pyrrolidin-2-yl)-1-hydroxy-3-phenylpropan-2-yl)-3-((R)-2-(4-methyloxazol-2-yl)pyrrolidine-1-carbonyl)benzamide], for which the “hepatic intrinsic clearance in liver microsomes (HLM CL)” value in data set [1] (listed as N-(1R,2S)-1-((2R,4R)-4-(benzyloxy)pyrrolidin-2-yl)-1-hydroxy-3-phenylpropan-2-y) is given as “approximately 337 mL/min/kg”; in data set [1] (listed as N-((1R,2S)-1-(2R,4R)-4-(benzyloxy)pyrrolidin-2-yl)-1-hydroxy-3-phenylpropan-2-yl), 337 mL/min/kg. Further, the IC50 in data set [2] (CHO cells over-expressing human APP695, Aβ40 ELISA) is 291 nM; in data set [2] (setting [3]), under 500 nM.

Take `Cc1csc(CN(C)C(=O)c2cccc(C(=O)N[C@@H](Cc3cc(F)cc(F)c3)[C@H](O)[C@H]3CCCN3)c2)n1` [1-41, N1-((1R,2S)-3-(3,5-difluorophenyl)-1-hydroxy-1-((R)-pyrrolidin-2-yl)propan-2-yl)-N3-methyl-N3-((4-methylthiazol-2-yl)methyl)isophthalamide]: the concentration for half-maximal inhibition (IC50) in data set [2] (setting [3]) is over 1000 nM.

For the molecule `Cc1csc(CN(C)C(=O)c2cccc(C(=O)N[C@@H](Cc3ccccc3)[C@H](O)[C@H]3C[C@@H](O)CN3)c2)n1` [1-10, N1-((1R,2S)-1-hydroxy-1-((2R,4R)-4-hydroxypyrrolidin-2-yl)-3-phenylpropan-2-yl)-N3-methyl-N3-((4-methylthiazol-2-yl)methyl)isophthalamide], the IC50 in data set [2] (setting [3]) is over 1000 nM.

Regarding `CCn1cc(CNC[C@@H](O)[C@H](Cc2ccccc2)NC(=O)c2cc(C)cc(C(=O)N3CCC[C@@H]3c3nc(C)co3)c2)cn1` [2-5, N-((2S,3R)-4-((1-ethyl-1H-pyrazol-4-yl)methylamino)-3-hydroxy-1-phenylbutan-2-yl)-3-methyl-5-((R)-2-(4-methyloxazol-2-yl)pyrrolidine-1-carbonyl)benzamide, reference compound], the half-inhibitory concentration (IC50) in data set [2] (setting [3]) was under 500 nM.

As to `Cc1cc(C(=O)N[C@@H](Cc2ccccc2)[C@H](O)CNCc2cncc(C(C)C)c2)cc(C(=O)N2CCC[C@@H]2c2nc(C)cs2)c1` [2-8, N-((2S,3R)-3-hydroxy-4-((5-isopropylpyridin-3-yl)methylamino)-1-phenylbutan-2-yl)-3-methyl-5-((R)-2-(4-methylthiazol-2-yl)pyrrolidine-1-carbonyl)benzamide, reference compound], the IC50 in data set [2] (setting [3]) was under 500 nM.

As to `Cc1csc([C@H]2CCCN2C(=O)c2cc(C(=O)N[C@@H](Cc3ccccc3)[C@H](O)[C@H]3CCCN3)cc(C3CC3)c2)n1` [1-50, 3-cyclopropyl-N-((1R,2S)-1-hydroxy-3-phenyl-1-((R)-pyrrolidin-2-yl)propan-2-yl)-5-((R)-2-(4-methylthiazol-2-yl)pyrrolidine-1-carbonyl)benzamide], in data set [2] (setting [3]), the IC50 is over 1000 nM.

Turning to `Cc1csc([C@H]2CCCN2C(=O)c2cccc(C(=O)N[C@@H](Cc3ccccc3)[C@H](O)[C@H]3CCCN3)c2)n1` [1-40, N-((1R,2S)-1-hydroxy-3-phenyl-1-((R)-pyrrolidin-2-yl)propan-2-yl)-3-((R)-2-(4-methylthiazol-2-yl)pyrrolidine-1-carbonyl)benzamide], the IC50 in data set [2] (setting [3]) was 500 to 1000 nM.

For the molecule `Cc1coc([C@H]2CCCN2C(=O)c2cc(CF)cc(C(=O)N[C@@H](Cc3ccccc3)[C@H](O)CNCc3cccc(C(C)(C)C)c3)c2)n1` [2-7, N-((2S,3R)-4-(3-tert-butylbenzylamino)-3-hydroxy-1-phenylbutan-2-yl)-3-(fluoromethyl)-5-((R)-2-(4-methyloxazol-2-yl)pyrrolidine-1-carbonyl)benzamide, reference compound], the IC50 in data set [2] (setting [3]) was under 500 nM.
